The target of assay [1] is BACE1 (Homo sapiens, UniProt P56817). Put plainly: In vitro enzymatic BACE FRET assay. Type of assay: biochemical. Here is the method: In Vitro Enzymatic BACE FRET (fluorescence resonance energy transfer) Assay (Enzyme Assay data in the Example Table I)
The assay buffer used in this screen is 0.05 M acetate, pH 4.2, 10% DMSO final, 100 uM genapol (which is a nonionic detergent, below its Critical Micelle Concentration). […] This assay is effectively started by the addition of FRET substrate (50 nM) and the combination is incubated for one hour. The FRET assay is terminated with by addition of Tris buffer, which raises the pH to neutrality, and the fluorescence is determined. The FRET substrate is a peptide with commercially available fluorophore and quencher, on opposite sides of the BACE cleavage site. Proteolytic cleavage of the FRET substrate releases quenching of fluorescence (excitation […] and […]).

Assay [2] has as its system Aβ40 in conditioned medium of cells expressing amyloid precursor protein. Put plainly: In vitro BACE cell-based assay (HEK cell assay, Aβ40 sandwich ELISA). Conditions: Homo sapiens, HEK293; average IC50; Aβ40 after 24 h incubation.

By IC50 is commonly meant the midpoint of a concentration-inhibition curve.

Sequence of BACE1 (P56817 46-501): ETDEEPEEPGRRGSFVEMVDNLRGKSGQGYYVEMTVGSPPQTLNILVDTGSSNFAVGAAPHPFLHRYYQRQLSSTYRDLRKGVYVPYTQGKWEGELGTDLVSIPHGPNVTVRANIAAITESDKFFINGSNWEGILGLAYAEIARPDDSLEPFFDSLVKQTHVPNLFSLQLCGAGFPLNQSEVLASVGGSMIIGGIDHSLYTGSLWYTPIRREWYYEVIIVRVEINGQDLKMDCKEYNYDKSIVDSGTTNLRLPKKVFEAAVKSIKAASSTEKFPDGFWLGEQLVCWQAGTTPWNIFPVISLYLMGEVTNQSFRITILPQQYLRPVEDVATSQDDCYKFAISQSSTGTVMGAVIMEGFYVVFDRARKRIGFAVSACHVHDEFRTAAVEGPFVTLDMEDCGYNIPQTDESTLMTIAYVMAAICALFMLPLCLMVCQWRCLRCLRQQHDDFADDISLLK

On to `NC1=N[C@@]2(c3cc(-c4cccnc4F)ccc3Oc3c2cc(-c2ccnc(F)c2)nc3F)c2ccccc21` (single isomer, unassigned) [Example 5-A], for which the IC50 stood at 18.2 nM in assay [1] and 1860 nM in assay [2].

With `NC1=N[C@]2(c3cc(-c4cccnc4F)ccc3Oc3cnc(-c4cccnc4F)cc32)c2ccccc21` (single isomer, unassigned) [Example 10-C], the 50% inhibitory concentration (IC50) was 900 nM in assay [1] and more than 10000 nM in assay [2].

As for `NC1=N[C@@]2(c3cc(-c4cccnc4F)ccc3Oc3c2cc(C2=CCCOC2)nc3F)c2ccccc21` (single isomer, unassigned) [Example 7-A], the IC50 in assay [1] turned out to be 78 nM; in assay [2], 336 nM.

For `NC1=N[C@]2(c3cc(-c4cccnc4F)ccc3Oc3c2cc(C2=CCCOC2)nc3F)c2cnccc21` [Example 14-E, (S)-3-(5,6-dihydro-2H-pyran-3-yl)-1-fluoro-7-(2-fluoropyridin-3-yl)spiro[chromeno[2,3-c]pyridine-5,3′-pyrrolo[3,4-c]pyridin]-1′-amine], the IC50 was determined as 0.5 nM in assay [1] and 2 nM in assay [2].

For `NC1=N[C@]2(c3cc(Br)ccc3Oc3c2cc(Cl)nc3F)c2cccnc21` (single isomer, unassigned) [Example 17c-2], the concentration for half-maximal inhibition (IC50) in assay [1] was 3440 nM; in assay [2] it was more than 10000 nM.

`NC1=N[C@@]2(c3cc(Br)ccc3Oc3c2cc(Cl)nc3F)c2cccnc21` (single isomer, unassigned) [Example 17c-1]: the IC50 in assay [1] and in assay [2] was more than 10000 nM in each case.

As for `NC1=NC2(c3cc(-c4cccnc4F)ccc3Oc3cnc(-c4ccnc(F)c4)cc32)c2cccnc2O1` (racemic) [Example 24, 7-(2-fluoropyridin-3-yl)-3-(2-fluoropyridin-4-yl)spiro[chromeno[2,3-c]pyridine-5,4-pyrido[3,2-e][1,3]oxazin]-2′-amine], the concentration for half-maximal inhibition (IC50) in assay [1] came to 1.8 nM; in assay [2], 320 nM.

In the case of `NC1=N[C@]2(c3cc(-c4cccnc4F)ccc3Oc3c2cc(-c2ccnc(F)c2)nc3F)c2cnccc21` (single isomer, unassigned) [Example 14-A], the results for the concentration for half-maximal inhibition (IC50) in assay [1] and in assay [2] were 0.4 nM and 8 nM, respectively.

Consider `NC1=NC2(c3cc(-c4cccnc4F)ccc3Oc3cnc(Cl)cc32)c2ccccc21` (racemic) [Example 10d, 3-chloro-7-(2-fluoropyridin-3-yl)spiro[chromeno[2,3-c]pyridine-5,1′-isoindol]-3′-amine], for which the IC50 in assay [1] was found to be 36 nM; in assay [2], 140 nM.

As for `NC1=N[C@]2(c3cc(Br)ccc3Oc3c2cc(Cl)nc3F)c2cnccc21` (single isomer, unassigned) [Example 14c-2], the concentration for half-maximal inhibition (IC50) was 3440 nM in assay [1] and more than 10000 nM in assay [2].

Regarding `NC1=N[C@]2(c3cc(-c4cccnc4F)ccc3Oc3c2cc(N2CCOCC2)nc3F)c2cccnc21` [Example 17-G, (S)-1-fluoro-7-(2-fluoropyridin-3-yl)-3-morpholinospiro[chromeno[2,3-c]pyridine-5,5′-pyrrolo[3,4-b]pyridin]-7′-amine], the IC50 in assay [1] turned out to be 1 nM; in assay [2], 2 nM.

With `NC1=N[C@@]2(c3cc(-c4cccnc4F)ccc3Oc3c2cc(Cl)nc3F)c2cnccc21` [Example 14d-1, (R)-3-chloro-1-fluoro-7-(2-fluoropyridin-3-yl)spiro[chromeno[2,3-c]pyridine-5,3′-pyrrolo[3,4-c]pyridin]-1′-amine], the IC50 was 6570 nM in assay [1] and more than 10000 nM in assay [2].

For the molecule `NC1=NC2(c3cc(-c4cccnc4F)ccc3Oc3cnc(C4=CCOCC4)cc32)c2ccccc21` (racemic) [Example 11, 3-(3,6-dihydro-2H-pyran-4-yl)-7-(2-fluoropyridin-3-yl)spiro[chromeno[2,3-c]pyridine-5,1′-isoindol]-3′-amine], the 50% inhibitory concentration (IC50) was 3 nM in assay [1] and 12 nM in assay [2].

Take `NC1=NC2(c3cc(-c4cccnc4F)ccc3Oc3c2cc(Cl)nc3F)c2ccccc21` (centres unmarked) [Example 5d, 3-chloro-1-fluoro-7-(2-fluoropyridin-3-yl)spiro[chromeno[2,3-c]pyridine-5,1′-isoindol]-3′-amine]: the IC50 in assay [1] amounted to 6 nM; in assay [2], 224 nM.

As for `NC1=NC2(c3ccccc3O1)c1cc(-c3cncnc3)ccc1Oc1cnc(-c3ccnc(F)c3)cc12` (centres unmarked) [Example 20, 3′-(2-fluoropyridin-4-yl)-7′-(pyrimidin-5-yl)spiro[benzo[c][1,3]oxazine-4,5-chromeno[2,3-c]pyridin]-2-amine], the IC50 in assay [1] is 2.7 nM; in assay [2], 106 nM.

Take `NC1=NC2(c3cc(-c4cccnc4F)ccc3Oc3c2cc(C2=CCOCC2)nc3F)c2ccccc21` (racemic) [Example 6, 3-(3,6-dihydro-2H-pyran-4-yl)-1-fluoro-7-(2-fluoropyridin-3-yl)spiro[chromeno[2,3-c]pyridine-5,1′-isoindol]-3′-amine]: the half-maximal inhibitory concentration (IC50) in assay [1] stood at 1 nM; in assay [2], 3 nM.

Consider `NC1=NC2(c3ccccc3O1)c1cc(-c3cccnc3F)ccc1Oc1cnc(-c3ccnc(F)c3)cc12` (centres unmarked) [Example 19, 7′-(2-fluoropyridin-3-yl)-3′-(2-fluoropyridin-4-yl)spiro[benzo[e][1,3]oxazine-4,5′-chromeno[2,3-c]pyridin]-2-amine], for which, in assay [1], the concentration for half-maximal inhibition (IC50) came out at 2 nM.

Regarding `NC1=NC2(c3cc(-c4cccnc4F)ccc3Oc3cnc(-c4ccnc(F)c4)cc32)c2ccccc21` (racemic) [Example 10, 7-(2-fluoropyridin-3-yl)-3-(2-fluoropyridin-4-yl)spiro[chromeno[2,3-c]pyridine-5,1′-isoindol]-3′-amine], the IC50 in assay [1] turned out to be 1 nM; in assay [2], 12 nM.

`NC1=N[C@]2(c3cc(-c4cccnc4F)ccc3Oc3c2cc(-c2ccnc(F)c2)nc3F)c2ccccc21` (single isomer, unassigned) [Example 5-B]: the IC50 in assay [1] was 0.6 nM; in assay [2], 11 nM.

Regarding `NC1=NC2(c3cc(-c4cccnc4F)ccc3Oc3c2cc(C2=CCCOC2)nc3F)c2ccccc21` (racemic) [Example 7, 3-(5,6-dihydro-2H-pyran-3-yl)-1-fluoro-7-(2-fluoropyridin-3-yl)spiro[chromeno[2,3-c]pyridine-5,1′-isoindol]-3′-amine], the IC50 in assay [1] came to 1 nM; in assay [2], 13 nM.

For the molecule `NC1=N[C@]2(c3cc(-c4cccnc4F)ccc3Oc3c2cc(Cl)nc3F)c2cccnc21` [Example 17d-2, (S)-3-chloro-1-fluoro-7-(2-fluoropyridin-3-yl)spiro[chromeno[2,3-c]pyridine-5,5′-pyrrolo[3,4-b]pyridin]-7′-amine], the IC50 in assay [1] came out at 16 nM; in assay [2] it was 1570 nM.

For the molecule `NC1=NC2(c3cc(-c4cccnc4F)ccc3Oc3c2cc(N2CCOCC2)nc3F)c2ccccc21` (racemic) [Example 8, 1-fluoro-7-(2-fluoropyridin-3-yl)-3-morpholinospiro[chromeno[2,3-c]pyridine-5,1′-isoindol]-3′-amine], the values for the IC50 in assay [1] and in assay [2] were 4.2 nM and 14 nM, respectively.

Turning to `NC1=NC2(c3cc(-c4cccnc4F)ccc3Oc3cnc(C4CCOCC4)cc32)c2ccccc21` (racemic) [Example 12, 7-(2-fluoropyridin-3-yl)-3-(tetrahydro-2H-pyran-4-yl)spiro[chromeno[2,3-c]pyridine-5,1′-isoindol]-3′-amine], the figures for the IC50 in assay [1] and in assay [2] were 4 nM and 13 nM, respectively.

On to `NC1=NC2(c3ccccc3O1)c1cc(-c3cccnc3)ccc1Oc1cnc(-c3ccnc(F)c3)cc12` (centres unmarked) [Example 23, 3′-(2-fluoropyridin-4-yl)-7′-(pyridin-3-yl)spiro[benzo[e][1,3]oxazine-4,5′-chromeno[2,3-c]pyridin]-2-amine], for which the figures for the IC50 in assay [1] and in assay [2] were 2.9 nM and 98 nM, respectively.

For the molecule `NC1=N[C@@]2(c3cc(-c4cccnc4F)ccc3Oc3c2cc(-c2ccnc(F)c2)nc3F)c2cnccc21` (single isomer, unassigned) [Example 14-B], the IC50 was found to be 107 nM in assay [1] and 2460 nM in assay [2].

On to `NC1=NC2(c3cc(Br)ccc3Oc3c2cc(Cl)nc3F)c2cnccc21` (centres unmarked) [Example 14c, 7-bromo-3-chloro-1-fluorospiro[chromeno[2,3-c]pyridine-5,3′-pyrrolo[3,4-c]pyridin]-1′-amine], for which the concentration for half-maximal inhibition (IC50) in assay [1] is 4580 nM; in assay [2], more than 10000 nM.

Take `NC1=NC2(c3cc(-c4cccnc4F)ccc3Oc3c2cc(-c2ccnc(F)c2)nc3F)c2ccccc21` (racemic) [Example 5e, 1-fluoro-7-(2-fluoropyridin-3-yl)-3-(2-fluoropyridin-4-yl)spiro[chromeno[2,3-c]pyridine-5,1′-isoindol]-3′-amine]: the figures for the half-inhibitory concentration (IC50) in assay [1] and in assay [2] were 1 nM and 8 nM, respectively.

With `NC1=N[C@]2(c3cc(-c4cccnc4F)ccc3Oc3c2cc(Cl)nc3F)c2cnccc21` [Example 14d-2, (S)-3-chloro-1-fluoro-7-(2-fluoropyridin-3-yl)spiro[chromeno[2,3-c]pyridine-5,3′-pyrrolo[3,4-c]pyridin]-1′-amine], the IC50 in assay [1] came to 2.5 nM; in assay [2], 35.5 nM.

As to `NC1=N[C@]2(c3cc(-c4cccnc4F)ccc3Oc3c2cc(C2=CCCOC2)nc3F)c2cccnc21` [Example 17-F, (S)-3-(5,6-dihydro-2H-pyran-3-yl)-1-fluoro-7-(2-fluoropyridin-3-yl)spiro[chromeno[2,3-c]pyridine-5,5′-pyrrolo[3,4-b]pyridin]-7′-amine], the results for the IC50 in assay [1] and in assay [2] were 0.7 nM and 3 nM, respectively.

As for `NC1=NC2(c3cc(-c4cccnc4F)ccc3Oc3c2cc(Cl)nc3F)c2cccnc21` (centres unmarked) [Example 17d, 3-chloro-1-fluoro-7-(2-fluoropyridin-3-yl)spiro[chromeno[2,3-c]pyridine-5,5′-pyrrolo[3,4-b]pyridin]-7′-amine 2,2,2-trifluoroacetate], the figures for the half-maximal inhibitory concentration (IC50) in assay [1] and in assay [2] were 88 nM and 4370 nM, respectively.

These data come from patent publication US8921363B2, “Derivatives of 1 H-isoindol-3-amine, 1 H-iso-aza-indol-3amine, 3,4-dihydroisoquinolin-1-amine, and 1,4-dihydroisoquinolin-3-amine as beta-secretase inhibitors” (Amgen Inc., priority 2010, dated 2014).
